In this assay the target is T1, PDE7 (type VII phosphodiesterase) (Homo sapiens, UniProt Q13946).
T1 construct: endogenous in cells; host or cells: MOLT-4 (ATCC CRL-1582), soluble fraction, HiTrapQ anion-exchange fraction
Nature of the assay: PDE7 inhibiting activity (3H-cAMP hydrolysis, active fraction from MOLT-4 cells). The assay is classed as biochemical. To be noted: PDE7 fraction from MOLT-4 cells, 0.064 μM cAMP, 10 μM rolipram present, 2 hours at 25° C.; read-out: IC50 values for phosphodiesterase inhibiting activities (PDE7). In short, it runs like this:
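PDE7 from MOLT-4 cell soluble fraction, HiTrapQ NaCl-gradient purified. Compounds reacted 2 h at 25° C in 20 mM tris-HCl pH 7.5, 1 mM MgCl2, 0.1 μCi 3H-cAMP (0.064 μM cAMP), 10 μM rolipram, 5′-nucleotidase; QAE-Sephadex-separated supernatant counted.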

Bounds are passed on as bounds.

Our source for the IC50 values is patent publication US7268128B2, “1,3,5-trisubstituted-5-phenyl and 5-pyridyl pyrazolopyrimidinone derivatives having PDE7 inhibiting action” (Ausbio Pharma Co., Ltd., priority 2001, dated 2007).

In general, IC50 refers to the concentration that inhibits the measured activity by half.

T1 sequence (Q13946 whole entry): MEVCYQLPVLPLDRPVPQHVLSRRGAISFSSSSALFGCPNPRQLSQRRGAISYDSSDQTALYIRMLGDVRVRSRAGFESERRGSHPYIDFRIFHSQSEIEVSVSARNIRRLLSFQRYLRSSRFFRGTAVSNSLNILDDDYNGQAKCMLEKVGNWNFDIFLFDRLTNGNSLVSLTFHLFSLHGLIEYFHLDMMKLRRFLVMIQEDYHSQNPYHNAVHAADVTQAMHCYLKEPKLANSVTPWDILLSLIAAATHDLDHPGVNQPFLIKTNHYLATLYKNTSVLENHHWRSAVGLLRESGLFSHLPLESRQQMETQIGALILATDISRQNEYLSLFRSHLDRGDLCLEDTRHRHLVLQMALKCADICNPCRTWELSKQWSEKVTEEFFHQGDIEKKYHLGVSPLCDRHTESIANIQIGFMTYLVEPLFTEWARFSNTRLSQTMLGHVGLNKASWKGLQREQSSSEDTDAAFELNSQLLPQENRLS

As to `COc1cc(C2=CCN(C)CC2)ccc1-c1nc2c(C)nn(C3CCCCC3)c2c(=O)[nH]1` [Example 123, 1-Cyclohexyl-5-[2-methoxy-4-(1-methyl-1,2,3,6-tetrahydro-4-pyridinyl)phenyl]-3-methyl-1,6-dihydro-7H-pyrazolo[4,3-d]pyrimidin-7-one], the IC50 is at most 1000 nM. As to `COc1cc(C2CCN(C)CC2)ccc1-c1nc2c(C)nn(C3CCCCC3)c2c(=O)[nH]1` [Example 124, 1-Cyclohexyl-5-[2-methoxy-4-(1-methyl-4-piperidinyl)phenyl]-3-methyl-1,6-dihydro-7H-pyrazolo[4,3-d]pyrimidin-7-one], the half-maximal inhibitory concentration (IC50) was at most 1000 nM. In the case of `COc1cc(N2CCCNCC2)ccc1-c1nc2c(C)nn(C3CCCCC3)c2c(=O)[nH]1` [Example 125, 1-Cyclohexyl-5-[4-(1,4-diazepan-1-yl)-2-methoxyphenyl]-3-methyl-1,6-dihydro-7H-pyrazolo[4,3-d]pyrimidin-7-one], the 50% inhibitory concentration (IC50) is at most 10 nM.

In the case of `COc1cc(N2CCCN(C(C)=O)CC2)ccc1-c1nc2c(C)nn(C3CCCCC3)c2c(=O)[nH]1` [Example 126, 5-[4-(4-Acetyl-1,4-diazepan-1-yl)-2-methoxyphenyl]-1-cyclohexyl-3-methyl-1,6-dihydro-7H-pyrazolo[4,3-d]pyrimidin-7-one], the half-maximal inhibitory concentration (IC50) was at most 1000 nM.

As to `CCN1CCCN(c2ccc(-c3nc4c(C)nn(C5CCCCC5)c4c(=O)[nH]3)c(OC)c2)CC1` [Example 127, 1-Cyclohexyl-5-[4-(4-ethyl-1,4-diazepan-1-yl)-2-methoxyphenyl]-3-methyl-1,6-dihydro-7H-pyrazolo[4,3-d]pyrimidin-7-one], the half-maximal inhibitory concentration (IC50) is at most 1000 nM. The figure for `CNC1CCN(c2cc(OC)c(-c3nc4c(C)nn(C5CCCCC5)c4c(=O)[nH]3)cc2F)CC1` [Example 129, 1-Cyclohexyl-5-{5-fluoro-2-methoxy-4-[4-(methylamino)-1-piperidinyl]phenyl}-3-methyl-1,6-dihydro-7H-pyrazolo[4,3-d]pyrimidin-7-one] is at most 1000 nM; for `CCOc1cc(N2CCCN(C)CC2)ccc1-c1nc2c(C)nn(C3CCCCC3)c2c(=O)[nH]1` [Example 130, 1-Cyclohexyl-5-[4-(4-methyl-1,4-diazepan-1-yl)-2-ethoxyphenyl]-3-methyl-1,6-dihydro-7H-pyrazolo[4,3-d]pyrimidin-7-one] it is at most 1000 nM. The same measure for `COc1cc(N(C)CCN(C)C)ccc1-c1nc2c(c(C3CCCCC3)nn2C)c(=O)[nH]1` [Example 132, 3-Cyclohexyl-6-{4-[[2-(dimethylamino)ethyl](methyl)amino]-2-methoxyphenyl}-1-methyl-1,5-dihydro-4H-pyrazolo[3,4-d]pyrimidin-4-one monomethanesulfonate]: at most 10 nM; for `COc1cc(N2CCCNCC2)ccc1-c1nc2c(c(C3CCCCC3)nn2C)c(=O)[nH]1` [Example 134, 3-Cyclohexyl-6-[4-(1,4-diazepan-1-yl)-2-methoxyphenyl]-1-methyl-1,5-dihydro-4H-pyrazolo[3,4-d]pyrimidin-4-one monomethanesulfonate]: at most 10 nM. For the compound `COc1cc(N2CCCN(C)CC2)ccc1-c1nc2c(c(C3CCCCC3)nn2C)c(=O)[nH]1` [Example 136, 3-Cyclohexyl-6-[2-methoxy-4-(4-methyl-1,4-diazepan-1-yl)phenyl]-1-methyl-1,5-dihydro-4H-pyrazolo[3,4-d]pyrimidin-4-one monomethanesulfonate], the IC50 was at most 10 nM. As to `CN1CCN(c2ccc(-c3nc4c(c(C5CCCCC5)nn4C)c(=O)[nH]3)c(OC(F)F)c2)CC1` [Example 139, 3-Cyclohexyl-6-[2-(difluoromethoxy)-4-(4-methyl-1-piperazinyl)phenyl]-1-methyl-1,5-dihydro-4H-pyrazolo[3,4-d]pyrimidin-4-one monomethanesulfonate], the IC50 was at most 1000 nM. `COc1cc(NC(N)=O)ccc1-c1nc2c(c(C3CCCCC3)nn2C)c(=O)[nH]1` [Example 140, N-[4-(3-cyclohexyl-1-methyl-4-oxo-4,5-dihydro-1H-pyrazolo[3,4-d]pyrimidin-6-yl)-3-methoxyphenyl]urea]: the IC50 is at most 10 nM. In the case of `COc1cc(NS(C)(=O)=O)ccc1-c1nc2c(c(C3CCCCC3)nn2C)c(=O)[nH]1` [Example 142, N-[4-(3-cyclohexyl-1-methyl-4-oxo-4,5-dihydro-1H-pyrazolo[3,4-d]pyrimidin-6-yl)-3-methoxyphenyl]methanesulfonamide], the IC50 was at most 10 nM. With `COc1cc(N2CCOC2=O)ccc1-c1nc2c(c(C3CCCCC3)nn2C)c(=O)[nH]1` [Example 143, 3-Cyclohexyl-6-[2-methoxy-4-(2-oxo-1,3-oxazolidin-3-yl)phenyl]-1-methyl-1,5-dihydro-4H-pyrazolo[3,4-d]pyrimidin-4-one], the IC50 is at most 10 nM. The same measure for `COc1cc(N2CCNC2=O)ccc1-c1nc2c(c(C3CCCCC3)nn2C)c(=O)[nH]1` [Example 144, 3-Cyclohexyl-6-[2-methoxy-4-(2-oxo-1-imidazolidinyl)phenyl]-1-methyl-1,5-dihydro-4H-pyrazolo[3,4-d]pyrimidin-4-one]: at most 10 nM; for `CCOC(=O)Nc1ccc(-c2nc3c(c(C4CCCCC4)nn3C)c(=O)[nH]2)c(OC)c1` [Example 145, Ethyl 4-(3-cyclohexyl-1-methyl-4-oxo-4,5-dihydro-1H-pyrazolo[3,4-d]pyrimidin-6-yl)-3-methoxyphenylcarbamate]: at most 10 nM; for `COc1cc(N(C)C(C)=O)ccc1-c1nc2c(c(C3CCCCC3)nn2C)c(=O)[nH]1` [Example 146, N-[4-(3-cyclohexyl-1-methyl-4-oxo-4,5-dihydro-1H-pyrazolo[3,4-d]pyrimidin-6-yl)-3-methoxyphenyl]-N-methylacetamide]: at most 1000 nM. As for `COc1cc(N(C)S(C)(=O)=O)ccc1-c1nc2c(c(C3CCCCC3)nn2C)c(=O)[nH]1` [Example 147, N-[4-(3-cyclohexyl-1-methyl-4-oxo-4,5-dihydro-1H-pyrazolo[3,4-d]pyrimidin-6-yl)-3-methoxyphenyl]-N-methylmethanesulfonamide], the concentration for half-maximal inhibition (IC50) was at most 1000 nM.

With `COc1cc(NC(=O)N2CCOCC2)ccc1-c1nc2c(c(C3CCCCC3)nn2C)c(=O)[nH]1` [Example 148, N-[4-(3-cyclohexyl-1-methyl-4-oxo-4,5-dihydro-1H-pyrazolo[3,4-d]pyrimidin-6-yl)-3-methoxyphenyl]-4-morpholinecarboxamide], the IC50 is at most 10 nM.

For `CNC1CCN(c2ccc(-c3nc4c(c(C5CCCCC5)nn4C)c(=O)[nH]3)c(OC)c2)CC1` [Example 150, 3-Cyclohexyl-6-{2-methoxy-4-[4-(methylamino)-1-piperidinyl]phenyl}-1-methyl-1,5-dihydro-4H-pyrazolo[3,4-d]pyrimidin-4-one monomethanesulfonate], the IC50 was at most 10 nM. For `COc1cc(N2CCN(C)C2=O)ccc1-c1nc2c(c(C3CCCCC3)nn2C)c(=O)[nH]1` [Example 152, 3-Cyclohexyl-6-[2-methoxy-4-(3-methyl-2-oxo-1-imidazolidinyl)phenyl]-1-methyl-1,5-dihydro-4H-pyrazolo[3,4-d]pyrimidin-4-one], the IC50 was at most 10 nM. Regarding `COc1cc(N2CCC(N(C)C)CC2)ccc1-c1nc2c(c(C3CCCCC3)nn2C)c(=O)[nH]1` [Example 154, 3-Cyclohexyl-6-{4-[4-(dimethylamino)-1-piperidinyl]-2-methoxyphenyl}-1-methyl-1,5-dihydro-4H-pyrazolo[3,4-d]pyrimidin-4-one monomethanesulfonate], the IC50 is at most 10 nM.
